# Test results as given in paper PMC10575921 (Nature Communications, 2023).
# Values joined by “and” are separate entries in the source; they are usually repeats but may differ in a detail not shown here. Identical values can stand only once. Like-named read-outs stand apart in the source and are kept apart here.
# Assays:
# [1] = system: human primary hepatocytes; conditions: primary hepatocyte cytotoxicity
# SARS-CoV-2 3CL^pro [2] = molecular target: T1, SARS-CoV-2 3CL^pro (Severe acute respiratory syndrome coronavirus 2, UniProt P0DTD1); assay: biochemical; conditions: for inhibition at 0.01563 µM: concentration 15.63 nM; for inhibition at 0.03125 µM: concentration 31.25 nM; for inhibition at 1 µM: concentration 1000.00 nM; for inhibition at 0.5 µM: concentration 500.00 nM
# [3] = buffer, pH 7.4
# in vitro = conditions: African green monkey
# SARS-CoV-2 Delta strain = assay: microbe, parasite or virus in culture; format: cell-based
# SARS-CoV-2 3CL^pro [4] = molecular target: T1, SARS-CoV-2 3CL^pro; format: biochemical
smiles,measurement,setting,value
CC/C(=C(\c1ccccc1)c1ccc(OCCN(C)C)cc1)c1ccccc1 [Tamoxifen],% of vehicle control,[1]; 0.206 μM,109.51%
same,% of vehicle control,[1]; 5.56 μM,81.38% and 83.81% and 90.39%
same,% of vehicle control,[1]; 16.67 μM,0.08% and 0.0644% and 0.0757%
same,% of vehicle control,[1]; 50 μM,0.06% and 0.05%
same,% of vehicle control,[1]; 150 μM,0.0474% and 0.03% and 0.04%
"CC(C)(C)NC(=O)N[C@H](C(=O)N1C[C@H]2[C@@H]([C@H]1C(=O)NC(CC1CCC1)C(=O)C(N)=O)C2(C)C)C(C)(C)C (stereo partly shown) [boceprevir, reference compound]",inhibition at 50 µM,"SARS-CoV-2 3CL^pro [2]; 50000.00 nM, read-out: inhibition ratio (%)",90.9%
same,inhibition at 100 µM,"SARS-CoV-2 3CL^pro [2]; 100000.00 nM, read-out: inhibition ratio (%)",97.1%
same,inhibition at 25 µM,"SARS-CoV-2 3CL^pro [2]; […], read-out: inhibition ratio (%)",82.4%
CC(C)(C)NC(=O)N[C@H](C(=O)N1C[C@H]2[C@@H]([C@H]1C(=O)N[C@H](C=O)C[C@@H]1CCNC1=O)C2(C)C)C(C)(C)C [compound 1],inhibition at 0.01563 µM,SARS-CoV-2 3CL^pro [2]; read-out: inhibition ratio (%),72.2%
same,inhibition at 0.03125 µM,SARS-CoV-2 3CL^pro [2]; read-out: inhibition ratio (%),81.7%
same,inhibition at 1 µM,SARS-CoV-2 3CL^pro [2]; read-out: inhibition ratio (%),99.4%
same,GSHt1/2 (half-life of the electrophile warhead to react with glutathione),[3],101 min
CC(C)(C)NC(=O)N[C@H](C(=O)N1C[C@H]2[C@@H]([C@H]1C(=O)N[C@H](C#N)C[C@@H]1CCNC1=O)C2(C)C)C(C)(C)C [compound 2],inhibition at 0.03125 µM,SARS-CoV-2 3CL^pro [2]; read-out: inhibition ratio (%),59.6%
same,inhibition at 0.5 µM,SARS-CoV-2 3CL^pro [2]; read-out: inhibition ratio (%),100%
same,CC50,in vitro,> 500 µM
same,EC50,"SARS-CoV-2 Delta strain; Severe acute respiratory syndrome coronavirus 2, Vero C1008",7400 nM
same,EC50,"SARS-CoV-2 Delta strain; Severe acute respiratory syndrome coronavirus 2, Vero C1008, read-out: EC50 (nM), single independent experiment",5890 nM
same,EC50,SARS-CoV-2 Delta strain; read-out: EC50^CP,319 nM
same,GSHt1/2 (half-life of the electrophile warhead to react with glutathione),[3],962 min
CC(=O)/C=C/[C@H](C[C@@H]1CCNC1=O)NC(=O)[C@@H]1[C@@H]2[C@H](CN1C(=O)[C@@H](NC(=O)NC(C)(C)C)C(C)(C)C)C2(C)C [compound 3],IC50,SARS-CoV-2 3CL^pro [2]; IC50,14 nM
same,IC50,SARS-CoV-2 3CL^pro [2]; IC50 (nM),12 nM and 17 nM and 14 nM
same,inhibition at 0.01563 µM,SARS-CoV-2 3CL^pro [2]; read-out: inhibition ratio (%),52.7%
same,inhibition at 0.03125 µM,SARS-CoV-2 3CL^pro [2]; read-out: inhibition ratio (%),85.4%
same,inhibition at 0.5 µM,SARS-CoV-2 3CL^pro [2]; read-out: inhibition ratio (%),101%
same,inhibition at 1 µM,SARS-CoV-2 3CL^pro [2]; read-out: inhibition ratio (%),99.6%
same,reversibility of SARS-CoV-2 3CLpro inhibition,SARS-CoV-2 3CL^pro [4],irreversible
same,GSHt1/2 (half-life of the electrophile warhead to react with glutathione),[3],15 min
CC(C)(C)NC(=O)N[C@H](C(=O)N1CC[C@@H](Oc2ccccc2)[C@H]1C(=O)N[C@H](C#N)C[C@@H]1CCNC1=O)C(C)(C)C [compound 4],IC50,SARS-CoV-2 3CL^pro [2]; IC50,6940 nM
same,IC50,SARS-CoV-2 3CL^pro [2]; IC50 (nM),7170 nM and 7720 nM and 5940 nM
same,inhibition at 3.125 µM,"SARS-CoV-2 3CL^pro [2]; concentration 3125.00 nM, read-out: inhibition ratio (%)",31.2%
same,inhibition at 50 µM,"SARS-CoV-2 3CL^pro [2]; concentration 50000.00 nM, read-out: inhibition ratio (%)",91.2%
same,inhibition at 100 µM,"SARS-CoV-2 3CL^pro [2]; concentration 100000.00 nM, read-out: inhibition ratio (%)",96.8%
same,inhibition at 25 µM,"SARS-CoV-2 3CL^pro [2]; concentration […], read-out: inhibition ratio (%)",86%
CC(C)(C)NC(=O)N[C@H](C(=O)N1C[C@@H](c2ccccc2)C[C@H]1C(=O)N[C@H](C#N)C[C@@H]1CCNC1=O)C(C)(C)C [compound 5],IC50,SARS-CoV-2 3CL^pro [2]; IC50,814 nM
same,IC50,SARS-CoV-2 3CL^pro [2]; IC50 (nM),883 nM and 880 nM and 679 nM
same,inhibition at 5 µM,"SARS-CoV-2 3CL^pro [2]; concentration 5000.00 nM, read-out: inhibition ratio (%)",91.4%
same,inhibition at 10 µM,"SARS-CoV-2 3CL^pro [2]; concentration 10000.00 nM, read-out: inhibition ratio (%)",94.8%
